According to patent US5258397A, “3-Isoxazoyl derivatives endowed with anticonvulsant activity, procedure for their preparation and their pharmaceutical compositions” (Novapharme, priority 1988, dated 1993):

What was measured:
SWISS CDl mice [1] = assay: Electroshock test (anticonvulsant activity); format: in vivo; settings: i.p., % of animals not extending the hind paws; for % protection against Electro shock 30 min.: 1/10 of the LD50, 30 min before electroshock; for % protection against Electro shock 4 h: 1/10 of the LD50, 4 hours before electroshock
Description: (§1) The anticonvulsant activity is measured by the electroshock and pentetrazole tests according to the procedure of A. SWINYARD (ADD PROGRAM OF NINCDS BY H. J. KUPFERBERG. E. A. SWINYARD AND G. D. GLADDING in Advances in Epileptology/XIIth Epilepsy International Symposium edited by M. DAM, L. GRAM and J. K. PENRY-RAVEN press N.Y. 1981). The compounds are always administered (at 1/10 of the LD50) by IP injections into SWISS CDl mice (Charles River) of 20-25 g mean weight. All of the compounds are dissolved in a 0.9% solution of sodium chloride or suspended in a 1% solution of carboxymethyl cellulose or tween.
Electroshock test. Groups of 10 mice (1 control group and one treated group) are used for each compound. The treated group receives the compound to be tested by the intraperitoneal route either 30 mn before the electroshock or 4 hours before the electroshock. This latter is applied with the aid of corneal electrodes (50 milliamperes for 0.2 second). Protection is measured by the percentage of animals not extending the hind paws.

[2] = Determination of the lethal dose 50 (MILLER and TAINTER); settings: in vivo, ip
Description: The toxicity is measured by the technique of MILLER and TAINTER by the intraperitoneal route.

mice = assay: Cerebral protective activity: hypoxia induced by the altitude; format: in vivo; settings: i.p., 30 min before closed chamber at 210 mm Hg
Description: Five mice (20 to 25 g) receive an administration of the compound or the liquid vehicle by the intraperitoneal route 30 min. before being placed in a closed chamber in which the atmospheric pressure is reduced to 210 mm Hg. The time of survival (in seconds) is measured from the induction of hypoxia to the cessation of respiratory movements.

SWISS CDl mice [3] = assay: Seizures induced by pentetrazole (anticonvulsant activity); format: in vivo; settings: i.p., % protected against clonic seizures; for % protection against Pentetrazole 30 mn.: 1/10 of the LD50, 30 mn before pentetrazole 70 mg/kg s.c.; for % protection against Pentetrazole 4 h: 1/10 of the LD50, 4 hours before pentetrazole 70 mg/kg s.c.
Description: as §1
Seizures induced by pentetrazole. 70 mg/kg of pentetrazole are injected by the subcutaneous route into groups of 10 mice (1 control group and one treated group) in a volume of 0.2 ml/20 g of body weight. The compounds to be tested are administered either 30 mn before pentetrazole or 4 hours before pentetrazole by the intraperitoneal route. The animals are observed for 30 mn. The number of clonic seizures lasting 5 seconds or more and the percentage of the animals protected against clonic seizures are recorded.

| Structure (SMILES) | % protection against Electro shock 30 min. (SWISS CDl mice [1]) [%] | % protection against Electro shock 4 h (SWISS CDl mice [1]) [%] | LD50 ([2]; intraperitoneal route) [mg/kg] | hypoxia induced by the altitude; increase time of survival as % of controls (mice) | % protection against Pentetrazole 30 mn. (SWISS CDl mice [3]) [%] | % protection against Pentetrazole 4 h (SWISS CDl mice [3]) [%] | LD50 [2] [mg/kg] |
| --- | --- | --- | --- | --- | --- | --- | --- |
| Cc1cccc(C)c1NC(=O)c1cc(C)n(C)n1 [Compound 4, 3-(2,6-dimethylphenylcarbamoyl) 1,5-dimethyl pyrazole] | 100 | 0 | 150 | 60 % of controls | 30 | 10 | – |
| Cc1cccc(C)c1NC(=O)c1cc(CF)on1 [Compound 31, 3-(2,6-dimethylphenylcarbamoyl) 5-fluoromethyl isoxazole] | 100 | 0 | 375 | – | 0 | 0 | – |
| Cc1cccc(C)c1N(C)C(=O)c1cc(C)n(C)n1 [Compound 7] | 70 | 0 | – | – | 30 | 0 | 400 |
| Cc1cccc(Cl)c1NC(=O)c1cc(C)n(C)n1 [Compound 5, 3-(2-chloro 6-methylphenylcarbamoyl) 1,5-dimethyl pyrazole] | 100 | 10 | 500 | – | 40 | 10 | – |
| COc1cc(C(=O)Nc2c(C)cccc2C)nn1C [Compound 15, 3-(2,6-dimethylphenylcarbamoyl) 1-methyl 5-methoxy pyrazole] | 10 | 0 | 400 | 21 % of controls | 0 | 10 | – |
| Cc1cc(NC(=O)c2c(C)cccc2C)no1 [Compound 17] | 100 | 0 | – | – | 30 | 20 | 2000 |
| Cc1cccc(C)c1C(=O)Nc1cc(C)n(C)n1 [Compound 3, N-(1,5-dimethyl-3-pyrazolyl)2,6-dimethylbenzamide] | 100 | 0 | 1000 | – | 50 | 0 | – |
| CC(=O)n1nc(C(=O)Nc2c(C)cccc2Cl)cc1C [Compound 2, 3-(2-chloro 6-methylphenylcarbamoyl) 1-acetyl 5-methyl pyrazole] | 100 | 0 | 350 | – | 80 | 0 | – |
| CC(=O)n1nc(C(=O)Nc2c(C)cccc2C)cc1C [Compound 41] | 100 | 0 | – | – | 50 | 0 | 350 |
| Cc1cccc(C)c1NC(=O)c1cc(COC(=O)c2ccccc2)on1 [Compound 29] | 70 | 0 | – | – | 10 | 10 | 2000 |
